The values below are quoted from earlier work in patent US5246706A, “Device for administering bimakalim transdermally” (Cygnus Therapeutic Systems, priority 1991, dated 1993).

For data set [1] the following is noted: known.
The conditions of data set [2]: octanol/phosphate buffer, pH 7.4; known.
In data set [3] the test system is potassium channel. As to conditions: background statement.

As to `CC1(C)C=C(n2ccccc2=O)c2cc(C#N)ccc2O1` [Bimakalim, 4-(1,2-dihydro-2-oxo-1-pyridyl)-2,2-dimethyl-2H-1-benzopyran-6-carbonitrile], the water solubility entry in data set [1] is “approximately 0.7 mg/ml”. In addition, in data set [2], the partition coefficient was 27.0. Also, the “potassium channel activating properties” value in data set [3] was “potassium channel activating drug”.
As to `CC1(C)Oc2ccc(C#N)cc2[C@@H](n2ccccc2=O)[C@@H]1O` (single isomer, unassigned) [(-)-trans-3,4-dihydro-4-(1,2-dihydro-2-oxo-1-pyridyl)-3-hydroxy-2,2-dimethyl-2H-1-benzopyran-6-carbonitrile], the “potassium channel activating properties” value in data set [3] is given as “exhibits potassium channel activating properties”.
